We go through 22 molecules from patent US8288385B2, “6-(3-aza-bicyclo[3.1.0]hex-3-yl)-2-phenyl-pyrimidines” (Actelion Pharmaceuticals Ltd., priority 2009, dated 2012).

The target in the experiment is T1, human P2Y12 receptor (Homo sapiens, UniProt Q9H244).
T1 construct: expressed in transfected cells; host or cells: Chinese Hamster Ovary (CHO) cells
The experiment can be described thus: P2Y12 receptor binding assay. The following applies: CHO cells with recombinant expression of the human P2Y12 receptor; tritium-labeled 2-methyl-S-ADP; RT, 2 hours. As to the method:
P2Y12 Receptor Binding Assay
Chinese Hamster Ovary (CHO) cells with recombinant expression of the human P2Y12 receptor were cultured in 24 well cell-culture plates. Cells were washed three times with binding buffer (50 mM Tris pH 7.4, 100 mM NaCl, 1 mM EDTA, 0.5% BSA). The cells were then incubated with 0.5 ml per well binding buffer containing tritium-labeled 2-methyl-thio-adenosine 5′-diphosphate (2-methyl-S-ADP) (between 100,000 and 300,000 dpm per well) and various concentrations of test compounds. After incubation at RT for 2 hours, cells were washed three times with binding buffer. Then, cells were solubilized by addition of 0.5 ml solubilization buffer (SDS, NaOH, EDTA). The content of each well was then transferred into beta-counter vials and 2.0 ml of Ultima Gold Scintillation liquid was added.

T1 sequence (Q9H244 whole entry): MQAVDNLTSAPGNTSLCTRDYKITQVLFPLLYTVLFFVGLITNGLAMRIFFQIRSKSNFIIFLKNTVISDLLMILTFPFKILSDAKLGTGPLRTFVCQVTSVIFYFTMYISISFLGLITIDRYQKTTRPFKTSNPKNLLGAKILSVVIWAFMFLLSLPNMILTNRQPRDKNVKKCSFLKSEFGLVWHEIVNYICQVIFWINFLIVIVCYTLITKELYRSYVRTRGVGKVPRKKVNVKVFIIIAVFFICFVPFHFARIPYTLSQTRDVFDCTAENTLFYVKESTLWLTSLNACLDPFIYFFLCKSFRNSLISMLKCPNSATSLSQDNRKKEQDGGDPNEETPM

Usually IC50 stands for the concentration that gives 50% inhibition. Regarding `CCCCOC(=O)N1CCN(C(=O)[C@H](CCC(=O)O)NC(=O)c2cc(N3C[C@@H]4[C@H](C3)[C@H]4C(=O)O)nc(-c3ccccc3)n2)CC1` [Example 1, (1α,5α,6α)-3-{6-[(S)-1-(4-Butoxycarbonyl-piperazine-1-carbonyl)-3-carboxy-propylcarbamoyl]-2-phenyl-pyrimidin-4-yl}-3-aza-bicyclo[3.1.0]hexane-6-carboxylic acid], the half-maximal inhibitory concentration (IC50) is 10 nM.

Regarding `CCCCOC(=O)N1CCN(C(=O)[C@H](CCC(=O)O)NC(=O)c2cc(N3C[C@@H]4[C@H](C3)[C@@H]4C(=O)O)nc(-c3ccccc3)n2)CC1` [Example 2, (1α,5α,6β)-3-{6-[(S)-1-(4-Butoxycarbonyl-piperazine-1-carbonyl)-3-carboxy-propylcarbamoyl]-2-phenyl-pyrimidin-4-yl}-3-aza-bicyclo[3.1.0]hexane-6-carboxylic acid], the IC50 was 3.7 nM.

On to `CCCCOC(=O)N1CCN(C(=O)[C@H](CCC(=O)O)NC(=O)c2cc(N3C[C@@H]4[C@H](C3)[C@H]4C(=O)OCC)nc(-c3ccccc3)n2)CC1` [Example 3, (1α,5α,6α)-3-{6-[(S)-1-(4-Butoxycarbonyl-piperazine-1-carbonyl)-3-carboxy-propylcarbamoyl]-2-phenyl-pyrimidin-4-yl}-3-aza-bicyclo[3.1.0]hexane-6-carboxylic acid ethyl ester], for which the IC50 came out at 8.7 nM.

As for `CCCCOC(=O)N1CCN(C(=O)[C@H](CCC(=O)O)NC(=O)c2cc(N3C[C@@H]4[C@H](C3)[C@@H]4C(=O)OCC)nc(-c3ccccc3)n2)CC1` [Example 4, (1α,5α,6β)-3-{6-[(S)-1-(4-Butoxycarbonyl-piperazine-1-carbonyl)-3-carboxy-propylcarbamoyl]-2-phenyl-pyrimidin-4-yl}-3-aza-bicyclo[3.1.0]hexane-6-carboxylic acid ethyl ester], the IC50 amounted to 15 nM.

For the molecule `CCCCOC(=O)N1CCN(C(=O)[C@H](CCC(=O)O)NC(=O)c2cc(N3C[C@@H]4[C@H](C3)[C@H]4NC(=O)OC(C)(C)C)nc(-c3ccccc3)n2)CC1` [Example 5, 4-((S)-2-{[6-((1α,5α,6α)-6-tert-Butoxycarbonylamino-3-aza-bicyclo[3.1.0]hex-3-yl)-2-phenyl-pyrimidine-4-carbonyl]amino}-4-carboxy-butyryl)-piperazine-1-carboxylic acid butyl ester], the IC50 was determined as 6.2 nM.

For `CCCCOC(=O)N1CCN(C(=O)[C@H](CCC(=O)O)NC(=O)c2cc(N3C[C@@H]4[C@H](C3)[C@@H]4NC(=O)OC(C)(C)C)nc(-c3ccccc3)n2)CC1` [Example 6, 4-((S)-2-{[6-((1α,5α,6β)-6-tert-Butoxycarbonylamino-3-aza-bicyclo[3.1.0]hex-3-yl)-2-phenyl-pyrimidine-4-carbonyl]-amino}-4-carboxy-butyryl)-piperazine-1-carboxylic acid butyl ester], the IC50 turned out to be 7.3 nM.

As to `CCCCOC(=O)N1CCN(C(=O)[C@H](CCC(=O)O)NC(=O)c2cc(N3C[C@@H]4[C@@H](N)[C@@H]4C3)nc(-c3ccccc3)n2)CC1` [Example 7], the IC50 is 7.5 nM.

For the molecule `CCCCOC(=O)N1CCN(C(=O)[C@H](CCC(=O)O)NC(=O)c2cc(N3C[C@@H]4[C@H](N)[C@@H]4C3)nc(-c3ccccc3)n2)CC1` [Example 8, 4-((S)-2-{[6-((1α,5α,6β)-6-Amino-3-aza-bicyclo[3.1.0]hex-3-yl)-2-phenyl-pyrimidine-4-carbonyl]-amino}-4-carboxy-butyryl)-piperazine-1-carboxylic acid butyl ester], the half-inhibitory concentration (IC50) was found to be 7 nM.

Consider `CCCCOC(=O)N1CCN(C(=O)[C@H](CCC(=O)O)NC(=O)c2cc(N3C[C@@H]4[C@@H](CO)[C@@H]4C3)nc(-c3ccccc3)n2)CC1` [Example 9, 4-((S)-4-Carboxy-2-{[6-((1α,5α,6α)-6-hydroxymethyl-3-aza-bicyclo[3.1.0]hex-3-yl)-2-phenyl-pyrimidine-4-carbonyl]-amino}-butyryl)-piperazine-1-carboxylic acid butyl ester], for which the IC50 worked out at 8 nM.

Regarding `CCCCOC(=O)N1CCN(C(=O)[C@H](CCC(=O)O)NC(=O)c2cc(N3C[C@@H]4[C@@H](COC)[C@@H]4C3)nc(-c3ccccc3)n2)CC1` [Example 10, 4-((S)-4-Carboxy-2-{[6-((1α,5α,6α)-6-methoxymethyl-3-aza-bicyclo[3.1.0]hex-3-yl)-2-phenyl-pyrimidine-4-carbonyl]-amino}-butyryl)-piperazine-1-carboxylic acid butyl ester], the IC50 came out at 6.6 nM.

On to `CCCCOC(=O)N1CCN(C(=O)[C@@H](NC(=O)c2cc(N3C[C@@H]4[C@H](C3)[C@@H]4C(=O)O)nc(-c3ccccc3)n2)C(C)C)CC1` [Example 11, (1α,5α,6β)-3-{6-[(S)-1-(4-Butoxycarbonyl-piperazine-1-carbonyl)-2-methyl-propylcarbamoyl]-2-phenyl-pyrimidin-4-yl}-3-aza-bicyclo[3.1.0]hexane-6-carboxylic acid], for which the IC50 was 14 nM.

For `CCCCOC(=O)N1CCN(C(=O)[C@@H](NC(=O)c2cc(N3C[C@@H]4[C@H](C3)[C@H]4C(=O)O)nc(-c3ccccc3)n2)C(C)C)CC1` [Example 12, (1α,5α,6α)-3-{6-[(S)-1-(4-Butoxycarbonyl-piperazine-1-carbonyl)-2-methyl-propylcarbamoyl]-2-phenyl-pyrimidin-4-yl}-3-aza-bicyclo[3.1.0]hexane-6-carboxylic acid], the IC50 was 70 nM.

Regarding `CCOC(=O)N1CCN(C(=O)C(NC(=O)c2cc(N3CC4C(C3)C4C(=O)O)nc(-c3ccccc3)n2)C(C)C)CC1` [Example 13, (1α,5α,6β)-3-{6-[(S)-1-(4-Ethoxycarbonyl-piperazine-1-carbonyl)-2-methyl-propylcarbamoyl]-2-phenyl-pyrimidin-4-yl}-3-aza-bicyclo[3.1.0]hexane-6-carboxylic acid], the IC50 was determined as 96 nM.

On to `CCCOC(=O)N1CCN(C(=O)[C@@H](NC(=O)c2cc(N3C[C@@H]4[C@H](C3)[C@@H]4C(=O)O)nc(-c3ccccc3)n2)C(C)C)CC1` [Example 14, (1α,5α,6β)-3-{6-[(S)-2-Methyl-1-(4-propoxycarbonyl-piperazine-1-carbonyl)-propylcarbamoyl]-2-phenyl-pyrimidin-4-yl}-3-aza-bicyclo[3.1.0]hexane-6-carboxylic acid], for which the IC50 is 60 nM.

Take `CCCCCOC(=O)N1CCN(C(=O)[C@@H](NC(=O)c2cc(N3C[C@@H]4[C@H](C3)[C@@H]4C(=O)O)nc(-c3ccccc3)n2)C(C)C)CC1` [Example 15, (1α,5α,6β)-3-{6-[(S)-2-Methyl-1-(4-pentyloxycarbonyl-piperazine-1-carbonyl)-propylcarbamoyl]-2-phenyl-pyrimidin-4-yl}-3-aza-bicyclo[3.1.0]hexane-6-carboxylic acid]: the IC50 was 15 nM.

For the molecule `CCCCCCOC(=O)N1CCN(C(=O)[C@@H](NC(=O)c2cc(N3C[C@@H]4[C@H](C3)[C@@H]4C(=O)O)nc(-c3ccccc3)n2)C(C)C)CC1` [Example 16, (1α,5α,6β)-3-{6-[(S)-1-(4-Hexyloxycarbonyl-piperazine-1-carbonyl)-2-methyl-propylcarbamoyl]-2-phenyl-pyrimidin-4-yl}-3-aza-bicyclo[3.1.0]hexane-6-carboxylic acid], the IC50 amounted to 34 nM.

As for `CCCCOC(=O)N1CCN(C(=O)[C@@H](NC(=O)c2cc(N3C[C@@H]4[C@H](C3)[C@H]4C(N)=O)nc(-c3ccccc3)n2)C(C)C)CC1` [Example 17, 4-((S)-2-{[6-((1α,5α,6α)-6-Carbamoyl-3-aza-bicyclo[3.1.0]hex-3-yl)-2-phenyl-pyrimidine-4-carbonyl]-amino}-3-methyl-butyryl)-piperazine-1-carboxylic acid butyl ester], the IC50 worked out at 13 nM.

Turning to `CCCCOC(=O)N1CCN(C(=O)[C@@H](NC(=O)c2cc(N3C[C@@H]4[C@@H](C#N)[C@@H]4C3)nc(-c3ccccc3)n2)C(C)C)CC1` [Example 18, 4-((S)-2-{[6-((1α,5α,6α)-6-Cyano-3-aza-bicyclo[3.1.0]hex-3-yl)-2-phenyl-pyrimidine-4-carbonyl]-amino}-3-methyl-butyryl)-piperazine-1-carboxylic acid butyl ester], the IC50 was 75 nM.

For `CCCCOC(=O)N1CCN(C(=O)[C@@H](NC(=O)c2cc(N3C[C@@H]4[C@H](C3)[C@H]4c3nnn[nH]3)nc(-c3ccccc3)n2)C(C)C)CC1` [Example 19], the IC50 turned out to be 12 nM.

Regarding `CCCCOC(=O)N1CCN(C(=O)[C@@H](NC(=O)c2cc(N3C[C@@H]4[C@H](C3)[C@@H]4C(N)=O)nc(-c3ccccc3)n2)C(C)C)CC1` [Example 20, 4-((S)-2-{[6-((1α,5α,6β)-6-Carbamoyl-3-aza-bicyclo[3.1.0]hex-3-yl)-2-phenyl-pyrimidine-4-carbonyl]-amino}-3-methyl-butyryl)-piperazine-1-carboxylic acid butyl ester], the IC50 turned out to be 20 nM.

For `CCCCOC(=O)N1CCN(C(=O)[C@@H](NC(=O)c2cc(N3C[C@@H]4[C@H](C#N)[C@@H]4C3)nc(-c3ccccc3)n2)C(C)C)CC1` [Example 21, 4-((S)-2-{[6-((1α,5α,6β)-6-Cyano-3-aza-bicyclo[3.1.0]hex-3-yl)-2-phenyl-pyrimidine-4-carbonyl]-amino}-3-methyl-butyryl)-piperazine-1-carboxylic acid butyl ester], the half-inhibitory concentration (IC50) stood at 10 nM.

For `CCCCOC(=O)N1CCN(C(=O)[C@@H](NC(=O)c2cc(N3C[C@@H]4[C@H](C3)[C@@H]4c3nnn[nH]3)nc(-c3ccccc3)n2)C(C)C)CC1` [Example 22], the IC50 stood at 38 nM.
